The results in this text go back to ChEMBL document CHEMBL3259742, “Design and synthesis of triazolopyrimidine acylsulfonamides as novel anti-mycobacterial leads acting through inhibition of acetohydroxyacid synthase” (Bioorg Med Chem Lett, 2014).

Converted amounts (≈) assume the structure as drawn.

Assay [1] has as its system Mycobacterium tuberculosis. Briefly: Antimycobacterial activity against Mycobacterium tuberculosis H37Rv ATCC 27294 after 7 days by resazurin assay. The class given is functional. As to conditions: H37Rv ATCC 27294, 168 h.
Assay [2] in a line: Inhibition of Mycobacterium tuberculosis acetohydroxy acid synthase after 60 mins by acetoin formation-based colorimetry.
The test system of assay [3] is Mycobacterium tuberculosis. Briefly: Antimycobacterial activity against Mycobacterium tuberculosis H37Rv ATCC 27294 after 7 days by resazurin assay in presence of Isoleucine, Leucine and Valine. It is filed as functional. As to conditions: H37Rv ATCC 27294, 168 h.

As to `COc1ccccc1S(=O)(=O)NC(=O)c1nc2nc(C)cc(C)n2n1`, the minimum inhibitory concentration (MIC) in assay [1] is 0.5 µg/mL (≈ 1.38 µM); in assay [3], greater than 32 µg/mL. In assay [2], this compound gave a pIC50 of 5.81.
Turning to `Cc1cc(C)n2nc(C(=O)NS(=O)(=O)c3c(C)cccc3Cl)nc2n1`, the MIC is 0.25 µg/mL (≈ 0.658 µM) in assay [1] and greater than 32 µg/mL in assay [3]. In assay [2], this compound came in with a pIC50 of 6.7.
In assay [1], `Cc1cc(C)n2nc(C(=O)NS(=O)(=O)c3ccc(OC(F)(F)F)cc3)nc2n1` showed an MIC greater than 32 µg/mL. In assay [2], the pIC50 was less than 4.52.
In assay [1], `Cc1cc(C)n2nc(C(=O)NS(=O)(=O)c3ccccc3CC#N)nc2n1` came in with an MIC of 32 µg/mL (≈ 86.4 µM). In assay [2], this compound gave a pIC50 of 6.59.
Turning to `Cc1cc(C)n2nc(C(=O)NS(=O)(=O)c3ccccc3C)nc2n1`, the MIC was 1 µg/mL (≈ 2.9 µM) in assay [1] and greater than 32 µg/mL in assay [3]. Also, the pIC50 in assay [2] stood at 6.29.
With `Cc1cc(C)n2nc(C(=O)NS(=O)(=O)c3c(C)cccc3C)nc2n1`, the MIC in assay [1] was 0.5 µg/mL (≈ 1.39 µM); in assay [3] it was greater than 32 µg/mL. Besides, the pIC50 in assay [2] was determined as 6.54.
In the case of `Cc1cc(C)n2nc(C(=O)NS(=O)(=O)c3ccccc3OC(F)(F)F)nc2n1`, the figures for the MIC in assay [1] and in assay [3] were 0.03 µg/mL (≈ 0.0722 µM) and greater than 32 µg/mL, respectively. In assay [2], the pIC50 worked out at 7.6.
Regarding `Cc1cc(C)n2nc(C(=O)NS(=O)(=O)c3ccccc3OC(F)F)nc2n1`, the MIC in assay [1] is less than 0.25 µg/mL; in assay [3], greater than 32 µg/mL. Further, the pIC50 in assay [2] is recorded as greater than 7.2.
The matching figures for `COC(=O)c1ccccc1S(=O)(=O)NC(=O)c1nc2nc(C)cc(C)n2n1`: 0.25 µg/mL (≈ 0.642 µM), greater than 32 µg/mL and 7.15.
For `Cc1cc(C)n2nc(C(=O)NS(=O)(=O)c3ccccc3C(F)(F)F)nc2n1`, the MIC in assay [1] is no more than 0.13 µg/mL; in assay [3] it was greater than 32 µg/mL. For the same compound, the pIC50 in assay [2] worked out at 6.98.
In the case of `Cc1cc(C)n2nc(C(=O)NS(=O)(=O)c3ccccc3Br)nc2n1`, the MIC is 0.25 µg/mL (≈ 0.609 µM) in assay [1] and greater than 32 µg/mL in assay [3]. In assay [2], the pIC50 is reported as 7.04.
The matching figures for `Cc1cc(C)n2nc(C(=O)NS(=O)(=O)c3ccccc3Cl)nc2n1`: 2 µg/mL (≈ 5.47 µM), greater than 32 µg/mL and 6.82.
As for `COC(=O)c1ccccc1S(=O)(=O)NC(=O)Nc1nc(C)cc(C)n1` [SULFOMETURON METHYL], the MIC in assay [1] is 16 µg/mL (≈ 43.9 µM); in assay [3], greater than 32 µg/mL. This compound had a pIC50 in assay [2] of 6.12.
In turn, `Cc1cc(C)n2nc(C(=O)NS(=O)(=O)c3ccc(C(F)(F)F)cc3)nc2n1` came in with an MIC in assay [1] greater than 32 µg/mL. Moreover, in assay [2], the pIC50 is reported as less than 4.52.
As to `Cc1cc(C)n2nc(C(=O)NS(=O)(=O)c3ccccc3F)nc2n1`, the MIC in assay [1] and in assay [3] was greater than 32 µg/mL in each case. In assay [2], this compound returned a pIC50 of 5.24.
For the compound `Cc1cc(C)n2nc(C(=O)NS(=O)(=O)c3c(C)cccc3OC(F)(F)F)nc2n1`, the minimal inhibitory concentration (MIC) in assay [1] is no more than 0.03 µg/mL; in assay [3], greater than 32 µg/mL. In assay [2], the pIC50 turned out to be 7.75.
Compound `Cc1cc(C)n2nc(C(=O)NS(=O)(=O)c3cccc(Br)c3)nc2n1` displayed an MIC in assay [1] of 32 µg/mL (≈ 78 µM). In assay [2], the pIC50 is reported as 5.31.
In assay [1], `Cc1cc(C)n2nc(C(=O)NS(=O)(=O)c3cccc(C(F)(F)F)c3)nc2n1` registered an MIC of 16 µg/mL (≈ 40.1 µM). In assay [2], this compound yielded a pIC50 of 5.36.
On the same counts, the results for `Cc1cc(C)n2nc(C(=O)NS(=O)(=O)c3cccc(OC(F)(F)F)c3)nc2n1` are 16 µg/mL (≈ 38.5 µM) and 5.6.
